Experimental data published in patent US20050255537A1, “Method for monitoring treatment with a parathyroid hormone” (priority 1999, published 2005).

Legend:
[1] = system: BSAP and PICP serum levels, NTX urine levels; experiment: Example 2 clinical trial of rhPTH(1-34) plus hormone replacement therapy vs HRT: bone markers; type: in vivo, human; settings: 40 μg/day PTH plus HRT
Method: • Number of Subjects: • rhPTH(1-34) plus hormone replacement therapy (HRT) (estrogen±progesterone): 122 enrolled, 91 finished. • Control, hormone replacement therapy (estrogen±progesterone) without PTH: 125 enrolled, 105 finished. • Diagnosis and Inclusion Criteria: Women aged 62±8 years, postmenopausal for 15±8 years, selected for a baseline spine bone mineral density of 0.9±0.15 and a T value of −1.8. • Dosage and Administration: • Test Product (blinded) • rhPTH(1-34): 40 μg/day, given subcutaneously plus hormone replacement therapy (estrogen±progesterone). Subjects continued their prestudy hormone replacement therapy, maintained an HRT regimen consistent with local medical practices, took continuous/combined estrogen and progestin therapy using oral Premarin (0.625 mg/day) and oral Provera (2.5 mg/day) (intact uterus), or took estrogen therapy using oral Premarin (0.625 mg/day) (without intact uterus). • Reference (Control) Therapy (Blinded) • Hormone replacement therapy (estrogen±progesterone). Subjects continued their prestudy hormone replacement therapy, maintained an HRT regimen consistent with local medical practices, took continuous/combined estrogen and progestin therapy using oral Premarin (0.625 mg/day) and oral Provera (2.5 mg/day) (intact uterus), or took estrogen therapy using oral Premarin (0.625 mg/day) (without intact uterus). • Duration of Treatment: • rhPTH(1-34): up to 18 months • Control: up to 18 months • Criteria for Evaluation: Spine x-ray, serum biological makers (calcium, bone-specific alkaline phosphatase procollagen I carboxy-terminal propeptide); urine markers (calcium, N-telopeptide, fee deoxypyridinoline); 1,25-dihydroxyvitamin D; bone mineral density: spine, hip, wrist, and total body.
Measures of BSAP, PICP, and NTX levels were determined for each patient through the course of therapy generally according to methods described above in Example 1.

[2] = system: postmenopausal women and osteoporotic men; experiment: Example 6 spine BMD treatment-response model and BCM response-indicator neural network (women and men); type: in vivo, human
Text: Data from studies in Examples 1 and 5 above were further analyzed to develop more detailed models for the use of bone markers in monitoring and predicting effects of PTH on clinically significant correlates of efficacy in the treatment of osteoporosis, such as bone mineral density (BMD). Population pharmacodynamic (PD) models were developed for total lumbar spine BMD, and the following biochemical markers of bone formation and resportion: PICP, BSAP, NTX, and DPD. The final treatment-response model for total lumbar spine was used to calculate BMD values at 12 months of treatment for each patient, based on the individual's parameter estimates (empirical Bayesian estimate). These predicted BMD measurements were merged with the observed BCM values, at baseline, 1 month, and 3 months of treatment, for patients who completed at least 12 months of LY333334 treatment. A neural network was developed to characterize the relationship between BCM values at 1 and 3 months and response to treatment, as measured by change in total lumbar spine BMD.
The spine BMD placebo-response model characterized change in total lumbar spine BMD over time in osteoporotic patients taking calcium and vitamin D supplements. The BMD treatment-response model was used to characterize change in total lumbar spine BMD during the course of treatment and to identify patient factors influencing response to therapy. This model was also used to provide individual estimates of change in BMD at 12 months. The BCM treatment-response models characterized changes in PICP, BSAP, NTX, and DPD, during the course of treatment.
The individual estimates of change in spine BMD from the final treatment-response model were combined with observed BCM values to develop the response-indicator neural network. The neural network was used to evaluate change in the biochemical markers as early indicators of change in total lumbar spine BMD.
Change in total lumbar spine BMD at 12 months of treatment was calculated from the post-hoc BMD estimates for each patient from the final spine BMD treatment-response model. These BMD estimates were combined with observed BCM values at baseline, 1, and 3 months for all patients completing at least 12 months of LY333334 therapy.
Neural networks were used to evaluate the biochemical markers as potential indicators of bone mineral density response to LY333334 treatment. The relationship between change in biochemical marker values and change in spine BMD is complex and the appropriate model structure is unknown. The neural network approach was chosen to avoid the a priori assumption of a model form. A proprietary artificial neural network program developed at Eli Lilly and Company (described in Wikel J, Dow E, Heathman M. 1996. Interpretive Neural Networks for QSAR. Network Science [available on-line]) was used to evaluate the BCM values as predictors of change in spine BMD. Other back-propagation networks which are known in the art and commercially available also would provide similar results. The BCM values, as well as significant patient factors from the final spine BMD treatment-response model, were used as inputs to the neural network. The network was trained to predict change in total lumbar spine BMD.

[3] = about 5-6 weeks following termination (18 months)
[4] = Female Patients, BSAP at 3 Months 10-14.99 pM
[5] = Female Patients, BSAP at 3 Months 15-19.99 pM
[6] = Female Patients, BSAP at 3 Months <10 pM
[7] = Female Patients, BSAP at 3 Months ≧20 pM
[8] = Females, change in PICP at 1 month 50-99 pM, baseline PICP <100 pM
[9] = Females, change in PICP at 1 month 50-99 pM, baseline PICP ≧100 pM
[10] = Females, change in PICP at 1 month 100-149 pM, baseline PICP <100 pM
[11] = Females, change in PICP at 1 month 100-149 pM, baseline PICP ≧100 pM
[12] = Females, change in PICP at 1 month <50 pM, baseline PICP <100 pM
[13] = Females, change in PICP at 1 month <50 pM, baseline PICP ≧100 pM
[14] = Females, change in PICP at 1 month ≧150 pM, baseline PICP ≧100 pM
[15] = Male Patients, BSAP at 3 Months 10-14.99 pM
[16] = Male Patients, BSAP at 3 Months 15-19.99 pM
[17] = Male Patients, BSAP at 3 Months <10 pM
[18] = Male Patients, BSAP at 3 Months ≧20 pM
[19] = Males, change in PICP at 1 month 50-99 pM, baseline PICP <100 pM
[20] = Males, change in PICP at 1 month 50-99 pM, baseline PICP ≧100 pM
[21] = Males, change in PICP at 1 month 100-149 pM, baseline PICP <100 pM
[22] = Males, change in PICP at 1 month 100-149 pM, baseline PICP ≧100 pM
[23] = Males, change in PICP at 1 month <50 pM, baseline PICP <100 pM
[24] = Males, change in PICP at 1 month <50 pM, baseline PICP ≧100 pM
[25] = Males, change in PICP at 1 month ≧150 pM, baseline PICP <100 pM
[26] = Males, change in PICP at 1 month ≧150 pM, baseline PICP ≧100 pM
[27] = all patients with baseline PICP >100 pM and increase in PICP >100 pM, 12 months
[28] = male patients with baseline PICP >100 pM and increase in PICP >100 pM
[29] = postmenopausal women with baseline PICP >100 pM and increase in PICP >100 pM

SMILES: CC[C@H](C)[C@H](NC(=O)[C@H](CCC(=O)O)NC(=O)[C@H](CO)NC(=O)[C@@H](NC(=O)[C@@H](N)CO)C(C)C)C(=O)N[C@@H](CCC(N)=O)C(=O)N[C@@H](CC(C)C)C(=O)N[C@@H](CCSC)C(=O)N[C@@H](Cc1cnc[nH]1)C(=O)N[C@@H](CC(N)=O)C(=O)N[C@@H](CC(C)C)C(=O)NCC(=O)N[C@@H](CCCCN)C(=O)N[C@@H](Cc1cnc[nH]1)C(=O)N[C@@H](CC(C)C)C(=O)N[C@@H](CC(N)=O)C(=O)N[C@@H](CO)C(=O)N[C@@H](CCSC)C(=O)N[C@@H](CCC(=O)O)C(=O)N[C@@H](CCCN=C(N)N)C(=O)N[C@H](C(=O)N[C@@H](CCC(=O)O)C(=O)N[C@@H](Cc1c[nH]c2ccccc12)C(=O)N[C@@H](CC(C)C)C(=O)N[C@@H](CCCN=C(N)N)C(=O)N[C@@H](CCCCN)C(=O)N[C@@H](CCCCN)C(=O)N[C@@H](CC(C)C)C(=O)N[C@@H](CCC(N)=O)C(=O)N[C@@H](CC(=O)O)C(=O)N[C@H](C(=O)N[C@@H](Cc1cnc[nH]1)C(=O)N[C@@H](CC(N)=O)C(=O)N[C@@H](Cc1ccccc1)C(=O)O)C(C)C)C(C)C [LY333334]
- percent change in PICP serum levels during treatment ([1]; FIG. 5): reached a peak within about one or two months
- percent change in NTX urine levels during treatment ([1]; FIG. 6): increased steadily until about 6 months after treatment initiation and remained at about the same high level at 12 months
- BSAP level after termination of PTH treatment [1, 3]: maintained an elevated level
- PICP levels after termination of PTH treatment [1, 3]: PICP levels were the same as HRT controls
- percent change in NTX levels after termination of PTH treatment [1, 3]: had declined and approached levels similar to those observed in the control group
- % Change in Spine BMD at 12 Months, 5th-95th Percentiles [2, 4]: 1.5-18.9%
- % Change in Spine BMD at 12 Months, Mean [2, 4]: 9.4%
- % Change in Spine BMD at 12 Months, 5th-95th Percentiles [2, 5]: 3.4-24.7%
- % Change in Spine BMD at 12 Months, Mean [2, 5]: 12.2%
- % Change in Spine BMD at 12 Months, 5th-95th Percentiles [2, 6]: 0.5-15.3%
- % Change in Spine BMD at 12 Months, Mean [2, 6]: 7.2%
- % Change in Spine BMD at 12 Months, 5th-95th Percentiles [2, 7]: 4.6-20.9%
- % Change in Spine BMD at 12 Months, Mean [2, 7]: 12.9%
- % Change in Spine BMD at 12 Months, 5th-95th Percentiles [2, 8]: 2.2-19.0%
- % Change in Spine BMD at 12 Months, Mean [2, 8]: 9.5%
- % Change in Spine BMD at 12 Months, 5th-95th Percentiles [2, 9]: 3.6-18.8%
- % Change in Spine BMD at 12 Months, Mean [2, 9]: 10.4%
- % Change in Spine BMD at 12 Months, 5th-95th Percentiles [2, 10]: 2.9-16.1%
- % Change in Spine BMD at 12 Months, Mean [2, 10]: 10.4%
- % Change in Spine BMD at 12 Months, 5th-95th Percentiles [2, 11]: 6.9-19.7%
- % Change in Spine BMD at 12 Months, Mean [2, 11]: 12.6%
- % Change in Spine BMD at 12 Months, 5th-95th Percentiles [2, 12]: −0.7-12.4%
- % Change in Spine BMD at 12 Months, Mean [2, 12]: 5.7%
- % Change in Spine BMD at 12 Months, 5th-95th Percentiles [2, 13]: 2.9-17.3%
- % Change in Spine BMD at 12 Months, Mean [2, 13]: 9.0%
- % Change in Spine BMD at 12 Months, Mean ([2]; Females, change in PICP at 1 month ≧150 pM, baseline PICP <100 pM): 13.7%
- % Change in Spine BMD at 12 Months, 5th-95th Percentiles [2, 14]: 11.9-31.1%
- % Change in Spine BMD at 12 Months, Mean [2, 14]: 18.5%
- % Change in Spine BMD at 12 Months, 5th-95th Percentiles [2, 15]: 1.9-14.9%
- % Change in Spine BMD at 12 Months, Mean [2, 15]: 7.9%
- % Change in Spine BMD at 12 Months, 5th-95th Percentiles [2, 16]: 3.0-15.0%
- % Change in Spine BMD at 12 Months, Mean [2, 16]: 8.3%
- % Change in Spine BMD at 12 Months, 5th-95th Percentiles [2, 17]: 1.6-13.0%
- % Change in Spine BMD at 12 Months, Mean [2, 17]: 7.1%
- % Change in Spine BMD at 12 Months, 5th-95th Percentiles [2, 18]: 1.6-19.6%
- % Change in Spine BMD at 12 Months, Mean [2, 18]: 10.0%
- % Change in Spine BMD at 12 Months, 5th-95th Percentiles [2, 19]: 4.6-18.1%
- % Change in Spine BMD at 12 Months, Mean [2, 19]: 9.4%
- % Change in Spine BMD at 12 Months, 5th-95th Percentiles [2, 20]: 3.6-15.8%
- % Change in Spine BMD at 12 Months, Mean [2, 20]: 8.7%
- % Change in Spine BMD at 12 Months, 5th-95th Percentiles [2, 21]: 7.2-14.0%
- % Change in Spine BMD at 12 Months, Mean [2, 21]: 11.1%
- % Change in Spine BMD at 12 Months, 5th-95th Percentiles [2, 22]: 4.6-18.6%
- % Change in Spine BMD at 12 Months, Mean [2, 22]: 11.3%
- % Change in Spine BMD at 12 Months, 5th-95th Percentiles [2, 23]: 1.2-11.7%
- % Change in Spine BMD at 12 Months, Mean [2, 23]: 4.8%
- % Change in Spine BMD at 12 Months, 5th-95th Percentiles [2, 24]: 1.5-11.7%
- % Change in Spine BMD at 12 Months, Mean [2, 24]: 6.9%
- % Change in Spine BMD at 12 Months, 5th-95th Percentiles [2, 25]: 2.7-20.8%
- % Change in Spine BMD at 12 Months, Mean [2, 25]: 10.7%
- % Change in Spine BMD at 12 Months, 5th-95th Percentiles [2, 26]: 6.0-18.0%
- % Change in Spine BMD at 12 Months, Mean [2, 26]: 10.2%
- mean increase in total lumbar spine BMD [2, 27]: 13.6%
- minimum increase in total lumbar spine BMD [2, 27]: ≥ 4.3%
- mean increase in total lumbar spine BMD [2, 28]: 10.8%
- minimum increase in total lumbar spine BMD [2, 28]: ≥ 4.3%
- mean increase in total lumbar spine BMD ([2]; men who did not meet the PICP criteria): 7.4%
- mean increase in total lumbar spine BMD ([2]; patients who did not meet the PICP criteria, 12 months): 8.2%
- mean increase in total lumbar spine BMD [2, 29]: 16.0%
- minimum increase in total lumbar spine BMD [2, 29]: ≥ 5.9%
- mean increase in total lumbar spine BMD ([2]; women who did not meet the PICP criteria): 8.8%
